Experimental findings from article PMC10683014, “Amino Acids as Chelating Ligands for Platinum: Enhanced Stability in an Aqueous Environment Promoted by Biocompatible Molecules” (Journal of Medicinal Chemistry, 2023) are described below.

A value given as a limit tells only on which side of the number the result lay.

Assay [1] addresses T1, human recombinant COX-2 (Homo sapiens, UniProt P35354).
T1 construct: purchased Cayman Chemicals
T1 sequence (P35354 18-604): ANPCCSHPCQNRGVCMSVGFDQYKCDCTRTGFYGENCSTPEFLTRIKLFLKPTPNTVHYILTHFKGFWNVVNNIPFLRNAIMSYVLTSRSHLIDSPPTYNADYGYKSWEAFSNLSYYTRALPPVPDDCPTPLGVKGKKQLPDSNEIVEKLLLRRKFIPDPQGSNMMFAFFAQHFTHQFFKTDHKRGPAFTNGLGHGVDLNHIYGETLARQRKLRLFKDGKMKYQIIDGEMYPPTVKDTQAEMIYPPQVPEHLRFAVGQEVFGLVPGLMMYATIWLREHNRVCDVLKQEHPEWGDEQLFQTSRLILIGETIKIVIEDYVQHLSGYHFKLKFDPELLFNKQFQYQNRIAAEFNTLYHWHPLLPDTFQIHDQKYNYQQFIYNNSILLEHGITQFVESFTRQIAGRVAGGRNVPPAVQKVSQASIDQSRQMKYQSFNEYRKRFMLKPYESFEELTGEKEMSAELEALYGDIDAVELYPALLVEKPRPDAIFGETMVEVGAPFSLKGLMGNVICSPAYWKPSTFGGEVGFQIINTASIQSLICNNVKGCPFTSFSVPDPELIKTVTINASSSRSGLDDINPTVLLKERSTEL
The assay is described as follows: COX-2 inhibition, enzyme immunoassay (COX Inhibitor Screening Assay). The class given is biochemical. As to conditions: 2 min incubation. How it is done: Metal complexes containing an ASA moiety have been reported as inhibitors for COX-1/-2 previously.[4],[14],[40]−[44] […] Hereby, the isolated enzymes were treated with final concentrations of 10 and 25 μM of substances 1, 4, 5, and 6.
Inhibition of the isolated human recombinant COX-1 and COX-2 isoenzymes by the platinum complexes (10 and 25 μM) was evaluated using an enzyme immunoassay (EIA) (COX Inhibitor Screening Assay, Cayman Chemicals, Ann Arbor, Mi, USA) following the manufacturer’s protocol. The incubation time of the compounds with the respective isoenzymes was exactly 2 min. The results are presented as the mean ± SD of three independent experiments with two replicates of each experiment. The untreated control was set at 0% inhibition of the COX activity.

Assay [2] relates to MDA-MB-231 breast cancer cell line. In words: MTT metabolic activity (cytotoxicity) assay, MDA-MB-231. As to conditions: for IC50: MTT, 72 h incubation. It counts as cell-based. As for the experimental part: In order to determine the antitumor activity of the platinum complexes, in vitro cytotoxicity tests were performed. Compounds 1–4 were tested with cisplatin as a reference on the breast cancer cell line MCF-7 and the colon carcinoma cell line HT-29. Complexes 1, 4, and 5, as well as the ligand (but-3-en-1-yl 2-acetoxybenzoate, 6) were additionally evaluated on MDA-MB-231 cells and A2780cis cells, also using cisplatin as a reference. The metabolic activity as an indicator of cytotoxicity was determined by a classical 3-(4,5-dimethylthiazol-2-yl)-2,5-diphenyltetrazoliumbromid (MTT) assay.
The cell lines A2780cis and MDA-MB-231 were cultivated in RPMI 1640 without phenol red (PAN Biotech, Aidenbach, Germany), supplemented with L-glutamine (2 mM), 100 μg/mL penicillin, 100 μg/mL streptomycin, and FCS (10%) (all from Invitrogen Corporation, Gibco, Paisley, Scotland) at 37 °C in a 5% CO2/95% air atmosphere, and passaged twice per week. To maintain resistance, A2780cis cells were incubated every second week with cisplatin (1 μM). The cell lines MCF-7 and HT-29 were grown in DMEM without phenol red (PAN Biotech, Aidenbach, Germany), containing L-glutamine, 100 μg/mL penicillin, 100 μg/mL streptomycin, sodium pyruvate ([…]) (PAN Biotech), and FCS (10%) under the same conditions as the other cell lines.
The exponentially growing cell lines were seeded at a density of 2000 cells/well for MCF-7 cells, 4000 cells/well for HT-29 cells and MDA-MB-231 cells, and 8000 cells/well for A2780cis cells, respectively, into clear flat-bottom 96-well plates in triplicates. Following 24 h of incubation for adherence at 37 °C in a humidified atmosphere (5% CO2/95% air), the compounds were added to reach the desired concentrations between 10 and 100 μM, respectively. All stock solutions were prepared in dimethylformamide at a concentration of 100 mM and were then diluted with the respective cell-culture medium to the appropriate concentrations. After another 72 h of incubation, the cellular metabolic activity was measured by employing a MTT assay. Hereby, the yellow tetrazolium salt is converted to a purple formazan salt by the functioning mitochondria. These purple crystals are then dissolved in DMSO and can be quantified via absorption measurements at 570 and 420 nm. The optical density of the particular medium was subtracted in order to exclude the unspecific staining caused by the FCS-containing medium. The values were calculated with Excel 2019 (Microsoft, Redmond, WA, USA) using nonlinear regression and the decal logarithm of the inhibitor versus variable slope equation, while the top constraint was set to 100%.

As for `C=C.C[C@H](N)C(=O)[O][Pt][Cl]` [1a, (Ethylene,N-trans)(L-alaninato-N,O)chlorido(η^2-ethene)platinate(II)], the results for the “% Inhibition COX-2” value in assay [1] (10 μM) and in assay [1] (25 μM) were 27.23% and 52.36 ± 4.02%, respectively. In assay [2], this compound returned a 50% inhibitory concentration (IC50) of more than 50 µM.

Turning to “(Ethylene,N-trans)(L-alaninato-N,O)chlorido(η^2-(but-3-en-1-yl)-2-acetoxybenzoate)platinate(II) [compound 4]”, the “% Inhibition COX-2” value is 20.04% in assay [1] (10 μM) and 60.50 ± 7.63% in assay [1] (25 μM). In assay [2] (25 μM, without compounds set at 100%), the “metabolic activity (residual) on MDA-MB-231” value turned out to be 7.71%. Besides, the IC50 in assay [2] stood at 15.4 ± 0.74 µM.

One may read the IC50 as the point on the concentration scale where inhibition reaches its midpoint.
